Laboratory results published in US7638482B2, “Protein kinase C zeta as a drug target for arthritis and other inflammatory diseases” (Wyeth, priority 2003, dated 2009).
Like-named read-outs stand apart in the source and are kept apart here. Where a SMILES comes first, the peptide text is derived from it. The star is where a group is joined. Myristoyl = CCCCCCCCCCCCCC(=O)*

Tests used:
[1] = system: primary bovine chondrocytes; assay: Proteoglycan degradation in primary bovine chondrocyte pellet culture (release into media / retention in cell pellet, DMMB); format: cell-based
Protocol: Full-thickness bovine articular cartilage slices were dissected under aseptic conditions, rinsed four times in PBS, and subjected to pronase and collagenase digestion (1 mg/ml pronase (Calbiochem, San Diego, Calif.) for 30 minutes and 1 mg/ml Collagenase P (Roche Diagnostics Corporation, Indianapolis, Ind.) overnight at 37° C. in DME without serum) to isolate chondrocytes embedded in the cartilage extracellular matrix. The digest was filtered through a 70 micron Falcon™ cell strainer (BD Biosciences, San Jose, Calif.) and washed twice in DME containing 10% FBS. Typically 2-4×10^8 cells were obtained from a calf metacarpophalangeal joint surface. Cells were plated in monolayer in six-well plates at density of 2×10^6 cells/well. For pellet culture, cells were resuspended in growth media [HL-1 media (Cambrex Corporation, East Rutherford, N.J.), penicillin+streptomycin, glutamine, 50 μg/ml ascorbate, and 10% FBS] at 1×10^6 cells/ml, and 1 ml aliquots of cells were transferred to 15 ml sterile Falcon centrifuge tubes. The cells were centrifuged at 200×g for 5 min at 4° C. and the resulting cell pellets were cultured as described previously (Xu et al. (1996) Endocrinology 137:3557-65). Cell media were collected and stored for collagen and proteoglycan assays, and cells were refed with fresh media (3 ml/well, 1 ml/tube) every 3-4 days. Pellet cultures were maintained for 3 weeks, at which time the pellets were harvested and either digested with 0.5 ml of 300 μg/ml papain at 65° C. for 3-6 hrs for dimethylmethylene blue (DMMB) dye assays or prepared for histology.
Cells were incubated with the inhibitor for 3 hrs prior to the addition of either TNF or IL-1. […] SN50M, which served as a negative control, is the same peptide with amino acid changes to abolish NF-κB-blocking activity. SN50 and SN50M are available from, e.g., Biomol Research Laboratories, Inc. (Plymouth Meeting, Pa.).
To determine whether ζPKC inhibitors can inhibit TNF-mediated proteoglycan degradation, primary bovine chondrocytes were cultured with various concentrations of TNF for 5 days with or without (1) the myristoylated ζPKC peptide pseudosubstrate [herein termed “2089”; synthesized in-house; equivalent to SEQ ID NO:6; available from, e.g., BioSource International, Inc., USA (Camarillo, Calif.)], or (2) the small molecule inhibitor Ro-31-8220 (Sigma-RBI, Natick, Mass.). The inhibitors were added 3 hrs prior to addition of TNF.
To determine whether myristoylated ζPKC peptide pseudosubstrate 2089 can inhibit cytokine-mediated proteoglycan degradation in a dose-dependent manner, primary bovine chondrocytes were cultured with either 10 ng/ml TNF or 1 ng/ml IL-1 for 4 days after addition of various concentrations of 2089. […]

[2] = system: primary bovine chondrocytes; assay: Trypan blue staining of chondrocytes and lactate assays on culture media (cytotoxicity); format: cell-based
Protocol: Trypan blue staining of the chondrocytes and lactate assays on the culture media were performed to rule out cytotoxicity as a possible explanation for the results. […] In addition, control peptides were synthesized and tested in the same assay system to address the possibility that nonspecific effects may be causing the observed results.

NF-κB = NF-κB luciferase reporter assay in immortalized human chondrocyte cell line C28/I2; format: cell-based; conditions: BIS 20 μM; TNFα 1 or 10 ng/ml; C28/I2 cells; inhibitor added 2 hrs before TNF; FIG. 8
Protocol: Activation of NF-κB was measured in an immortalized human chondrocyte cell line (C28/I2; see, e.g., Finger et al. (2003) Arthritis Rheum. 48:3395-403; Goldring (1994) J. Clin. Invest. 94:2307-16) into which a luciferase reporter gene under the control of an NF-κB response element was introduced. The cells were cultured in DMEM/Ham's F12 supplemented with 10% FBS; the cells were split into 96 wells (1×10^5 cells/well) and infected with adenovirus expressing NF-κB luciferase construct (100 MOI) 24 hrs prior to assay. The chondrocytes were incubated with inhibitors in serum-free media 2 hrs prior to the addition of TNF. […] BIS (20 μM), a pan-PKC inhibitor, was added to some cultures, and CC (8 μM), a competitive inhibitor of the phorbol ester binding site in some forms of PKC (but not the a typical PKCs, e.g., ζPKC), was added to other cultures.

ζPKC = molecular target: T1, ζPKC (Homo sapiens, UniProt Q05513); conditions: literature (Toullec et al. 1991); cited from earlier work
T1 sequence (Q05513 1-592): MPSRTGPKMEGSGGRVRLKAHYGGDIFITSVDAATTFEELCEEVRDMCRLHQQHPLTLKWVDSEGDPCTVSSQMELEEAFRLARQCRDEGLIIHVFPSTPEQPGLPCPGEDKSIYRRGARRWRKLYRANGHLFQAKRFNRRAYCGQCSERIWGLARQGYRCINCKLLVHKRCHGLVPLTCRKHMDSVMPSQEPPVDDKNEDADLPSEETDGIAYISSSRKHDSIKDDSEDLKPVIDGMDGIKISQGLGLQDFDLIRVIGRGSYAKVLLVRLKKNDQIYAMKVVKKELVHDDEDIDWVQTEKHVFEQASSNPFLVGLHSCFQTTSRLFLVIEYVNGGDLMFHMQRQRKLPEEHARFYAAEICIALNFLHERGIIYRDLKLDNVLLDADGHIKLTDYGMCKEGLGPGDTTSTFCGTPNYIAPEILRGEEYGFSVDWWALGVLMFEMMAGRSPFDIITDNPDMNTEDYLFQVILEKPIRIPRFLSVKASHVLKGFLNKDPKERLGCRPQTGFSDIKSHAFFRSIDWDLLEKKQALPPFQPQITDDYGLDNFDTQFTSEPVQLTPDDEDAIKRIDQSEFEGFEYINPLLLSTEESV

Cn1cc(C2=C(c3cn(CCCSC(=N)N)c4ccccc34)C(=O)NC2=O)c2ccccc21 [Ro-31-8220]
TNF-mediated proteoglycan degradation ([1]; 5 μM Ro-31-8220, 5 days, FIG. 3): relatively ineffective
TNF-mediated proteoglycan degradation ([1]; 10 μM Ro-31-8220, TNF 10 and 100 ng/ml, 5 days, FIG. 3): significantly inhibited
proteoglycan degradation in the absence of TNF ([1]; no TNF, 5 days, FIG. 3): inhibited proteoglycan degradation
cytotoxicity (trypan blue staining, lactate assays) ([2]; at the doses used in the proteoglycan degradation experiments): do not cause appreciable cytotoxicity

CCCCCCCCCCCCCC(=O)N[C@@H](CO)C(=O)N[C@H](C(=O)N[C@@H](Cc1ccc(O)cc1)C(=O)N[C@@H](CCCNC(=N)N)C(=O)N[C@@H](CCCNC(=N)N)C(=O)NCC(=O)N[C@@H](C)C(=O)N[C@@H](CCCNC(=N)N)C(=O)N[C@@H](CCCNC(=N)N)C(=O)N[C@@H](Cc1c[nH]c2ccccc12)C(=O)N[C@@H](CCCNC(=N)N)C(=O)N[C@@H](CCCCN)C(=O)N[C@@H](CC(C)C)C(=O)O)[C@@H](C)CC [compound 2089] (Myristoyl-SIYRRGARRWRKL-OH)
cytotoxicity (trypan blue staining, lactate assays) [2]: do not cause appreciable cytotoxicity

bisindolylmaleimide
TNFα-mediated release of proteoglycan into the media ([1]; BIS at 20-40 μM, TNFα 100 ng/ml, FIG. 7): blocked
TNFα-mediated activation of NF-κB (relative luciferase activity) (NF-κB): blocked
inhibition of PKC isoforms including ζPKC (ζPKC): block the activity of all isoforms of PKC
